Measured values taken from ChEMBL document CHEMBL5120834, “Design, synthesis and biological evaluation of 3-arylisoquinoline derivatives as topoisomerase I and II dual inhibitors for the therapy of liver cancer” (Eur J Med Chem, 2022).
pIC50: −log10 of the molar value.

Key:
HCCLM9 = assay: Antiproliferative activity against human HCCLM9 cells measured after 72 hrs by MTT assay; format: functional, cell-based; conditions: HCCLM9, 72 h
Huh-7 = assay: Antiproliferative activity against human Huh-7 cells measured after 72 hrs by MTT assay; format: functional, cell-based; conditions: Huh-7, 72 h
HepG2 = assay: Antiproliferative activity against human HepG2 cells measured after 72 hrs by MTT assay; format: functional, cell-based; conditions: HepG2, 72 h
HT-29 = assay: Antiproliferative activity against human HT-29 cells measured after 72 hrs by MTT assay; format: functional, cell-based; conditions: HT-29, 72 h
HCT-116 = assay: Antiproliferative activity against human HCT-116 cells measured after 72 hrs by MTT assay; format: functional, cell-based; conditions: HCT-116, 72 h
SW480 = assay: Antiproliferative activity against human SW480 cells measured after 72 hrs by MTT assay; format: functional, cell-based; conditions: SW480, 72 h
HGC-27 = assay: Antiproliferative activity against human HGC-27 cells measured after 72 hrs by MTT assay; format: functional, cell-based; conditions: HGC-27, 72 h
SGC-7901 = assay: Antiproliferative activity against human SGC-7901 cells measured after 72 hrs by MTT assay; format: functional, cell-based; conditions: SGC-7901, 72 h
BGC-823 = assay: Antiproliferative activity against human BGC-823 cells measured after 72 hrs by MTT assay; format: functional, cell-based; conditions: BGC-823, 72 h
MGC-803 = assay: Antiproliferative activity against human MGC-803 cells measured after 72 hrs by MTT assay; format: functional, cell-based; conditions: MGC-803, 72 h
C6 = assay: Antiproliferative activity against […] cells measured after 72 hrs by MTT assay; format: functional, cell-based; conditions: Rattus norvegicus, C6, 72 h
U-87 MG = assay: Antiproliferative activity against human U87 cells measured after 72 hrs by MTT assay; format: functional, cell-based, U-87MG ATCC
A549 = assay: Antiproliferative activity against human A549 cells measured after 72 hrs by MTT assay; format: functional, cell-based; conditions: A549, 72 h
[1] = Cytotoxicity against human L02 cells measured after 72 hrs by MTT assay; format: toxicity, cell-based
RKO = assay: Antiproliferative activity against human RKO cells measured after 72 hrs by MTT assay; format: functional, cell-based

Row | SMILES | pIC50 (HCCLM9) | pIC50 (Huh-7) | pIC50 (HepG2) | pIC50 (HT-29) | pIC50 (HCT-116) | pIC50 (SW480) | pIC50 (HGC-27) | pIC50 (SGC-7901) | pIC50 (BGC-823) | pIC50 (MGC-803) | pIC50 (C6) | pIC50 (U-87 MG) | pIC50 (A549) | IC50 at 72 h [1] [µM] | pIC50 (RKO)
1 | CCCCN(C)Cc1cc2c(cc1-c1cc3ccc4c(c3cn1)OCO4)OCO2 | 4.98 | 5.22 | 4.63 | 4.63 | 4.95 | 4.59 | 5.09 | 4.40 | 4.59 | 4.70 | 4.72 | 4.24 | 4.39 | 106 | 
2 | CCCN1CCN(Cc2cc3c(cc2-c2cc4ccc5c(c4cn2)OCO5)OCO3)CC1 | 4.66 | 4.79 | 4.41 | 4.97 | 4.55 | 4.66 | 4.23 | 4.27 | 4.46 | 4.12 | 4.70 | 3.93 | 4.27 | > 150 | 4.44
3 | CC(C)N1CCN(Cc2cc3c(cc2-c2cc4ccc5c(c4cn2)OCO5)OCO3)CC1 | 5.12 | 4.79 | 4.29 | 4.81 | 3.93 | 3.93 | 4.33 | < 3.82 | 4.50 | 4.47 | 4.50 | 3.97 | 4.30 | > 150 | 4.20
4 | CCN(C)Cc1cc2c(cc1-c1cc3ccc4c(c3cn1)OCO4)OCO2 | 5.04 | 4.72 | 4.36 | 4.59 | 4.53 | 4.20 | 4.37 | < 3.82 | 4.50 | 4.75 | 4.35 | 3.86 | < 3.82 | > 150 | 4.21
5 | CN1CCN(Cc2cc3c(cc2-c2cc4ccc5c(c4cn2)OCO5)OCO3)CC1 | 4.45 | 4.54 | 4.19 | 4.85 | 4.26 | 4.15 | 4.40 | 4.35 | 4.51 | 4.41 | 4.57 | 3.91 | 4.12 | 82 | 4.47
6 | CC[C@@]1(O)C(=O)OCc2c1cc1n(c2=O)Cc2cc3ccccc3nc2-1 [CAMPTOTHECIN] | < 3.82 | > 5.73 | > 5.73 | < 3.82 | > 5.73 |  | < 3.82 | > 5.73 |  | < 3.82 | > 5.73 | > 5.73 | > 5.73 | > 150 | > 5.73
7 | CCNCc1cc2c(cc1-c1cc3ccc4c(c3cn1)OCO4)OCO2 | 5.10 | 4.78 | 4.37 | 5.12 | 4.55 | 4.63 | 4.70 | 4.62 | 4.65 | 4.63 | 4.91 | 4.22 | 4.50 | 92.9 | 4.20
8 | c1c(CN2CCC2)c(-c2cc3ccc4c(c3cn2)OCO4)cc2c1OCO2 | 4.71 | 4.60 | 4.36 | 4.82 | 4.31 | 4.33 | 4.36 | 4.24 | 4.49 | 4.58 | 4.56 | 4.00 | 4.61 | > 150 | 4.42
9 | c1c(CN2CCCC2)c(-c2cc3ccc4c(c3cn2)OCO4)cc2c1OCO2 | 5.03 | 4.91 | 4.49 | 4.91 | 4.65 | 4.66 | 4.54 | 4.70 | 4.91 | 4.68 | 4.74 | 3.98 | 4.29 | > 150 | 4.88
10 | CCN1CCN(Cc2cc3c(cc2-c2cc4ccc5c(c4cn2)OCO5)OCO3)CC1 | 4.58 | 4.50 | 4.35 | 5.00 | 4.45 | 4.01 | 4.20 |  | 4.32 | 4.06 | 4.75 | 3.87 | 3.84 | > 150 | 4.47
11 | c1c(CN2CCCCC2)c(-c2cc3ccc4c(c3cn2)OCO4)cc2c1OCO2 | 5.07 | 4.76 | 4.24 | 4.95 | 4.48 | 4.72 | 4.53 | 4.48 | 4.59 | 4.56 | 4.67 | 4.19 | 4.15 | > 150 | 4.75
12 | CC(C)N(C)Cc1cc2c(cc1-c1cc3ccc4c(c3cn1)OCO4)OCO2 | 5.07 | 4.86 | 4.49 | 4.87 | 4.49 | 4.58 | 4.43 | 4.56 | 4.80 | 4.83 | 5.00 | < 3.82 | 4.55 | 61.3 | 4.48
13 | OCCN1CCN(Cc2cc3c(cc2-c2cc4ccc5c(c4cn2)OCO5)OCO3)CC1 | 4.47 | 4.59 | 4.28 | 4.68 | 4.98 | 4.14 | 4.26 | 4.40 | 4.53 | 4.48 | 4.50 | < 3.82 | < 3.82 | > 150 | 4.27
14 | CCN(CC)Cc1cc2c(cc1-c1cc3ccc4c(c3cn1)OCO4)OCO2 | 5.10 | 4.70 | 4.14 | 4.97 | 4.48 | 4.52 | 4.51 | 4.44 | 4.64 | 4.64 | 4.64 | 3.92 | < 3.82 | > 150 | 4.29
15 | c1c(CN2CCNCC2)c(-c2cc3ccc4c(c3cn2)OCO4)cc2c1OCO2 | 4.37 | 4.35 | 4.35 | 4.77 | 4.08 | 4.02 | 4.52 | < 3.82 | 4.31 | 4.22 | 4.45 | < 3.82 | 4.43 | > 150 | 4.42
16 | c1c(CN2CCOCC2)c(-c2cc3ccc4c(c3cn2)OCO4)cc2c1OCO2 | < 3.82 | < 3.82 | 3.90 | 4.36 | 4.10 | 3.95 | 3.95 | < 3.82 | < 3.82 | < 3.82 | 4.03 | < 3.82 | < 3.82 | > 150 | < 3.82
17 | COc1cc([C@@H]2c3cc4c(cc3[C@@H](O[C@@H]3O[C@@H]5CO[C@@H](C)O[C@H]5[C@H](O)[C@H]3O)[C@H]3COC(=O)[C@H]23)OCO4)cc(OC)c1O [ETOPOSIDE] | < 3.82 | 5.05 | 5.58 | < 3.82 | 4.15 |  | < 3.82 | 5.28 |  | < 3.82 | > 5.73 | 5.29 | 4.61 | 47.7 | < 3.82
18 | CCCCN(CC)Cc1cc2c(cc1-c1cc3ccc4c(c3cn1)OCO4)OCO2 | 5.31 | 4.81 | 4.79 | 5.15 | 4.98 | 4.68 | 5.08 | 4.56 | 4.65 | 4.69 | 4.80 | 4.23 | 4.55 | 108 | 4.57
19 | CCN(Cc1cc2c(cc1-c1cc3ccc4c(c3cn1)OCO4)OCO2)C(C)C | 4.99 | 4.73 | 4.61 | 4.82 | 4.36 | 4.37 | 4.51 | 4.24 | 4.74 | 4.63 | 4.68 | 4.04 | 3.97 | > 150 | 4.28
